Counter-ions that a name gives are not always drawn.
Experiments:
[1] = Inhibition of cross-linking of N-acetyl glycyl-lysine methyl ester in the presence of ribose (fluorescence); assay type: biochemical; conditions: 0.5 M sodium phosphate buffer pH 7.4, 37° C, 16-24 hours, fluorescence 350/400 nm
Description: The following method was used to evaluate the ability of the compounds of the present invention to inhibit the cross-linking of N-acetyl glycyl-lysine methyl ester in the presence of ribose. […] Reaction mixtures are prepared as follows: [table] […] At the end of the incubation period reaction mixture is diluted with 3 ml distilled water and the fluorescence is read using an excitation wavelength of 350 nm and emission wavelength of 400 nm.

[2] = test system: fixed protein (gelatin, i.e., collagen) surface; assay: Surface browning experiment on gelatin/paper disks in glucose-6-phosphate; conditions: 100 mM glucose-6-phosphate, one week at 50°C; Peridex® at a final concentration of 0.04% chlorhexidine
Description: To further study the ability of inhibitors of nonenzymatic browning to prevent the discoloration of protein on a surface, such as that which occurs on the tooth surface, the following surface browning experiment is performed. As a substitute for a pellicle-covered tooth surface, unexposed and developed photographic paper is used to provide a fixed protein (gelatin, i.e., collagen) surface on a paper backing. Five millimeter circles are punched and immersed for one week at 50°C in a solution of 100 mM glucose-6-phosphate in a 0.5 M phosphate buffer, pH 7.4, containing 3 mM sodium azide. […] In addition to the glucose-6-phosphate, chlorhexidine and/or a compound of Formula I are included. After incubation, the gelatin/paper disks are rinsed with water, observed for brown color, and photographed.

Compound	IC50 [1] [µM]	brown color of gelatin/paper disks [2]
2-methyl-[6'-(3',4'-diamino-5(4H)-one-1,2,4-triazinyl)]hydrazide	830	
CC(C)(CO)c1nnc(N)n(N)c1=O [3,4-diamino-6-(1',1'-dimethyl-2'-hydroxyethyl)-1,2,4-triazine-5(4H)-one]	970	
CCOC(=O)C(C)c1nnc(N)n(N)c1=O (centres unmarked) [3,4-diamino-6-(1'-ethoxycarbonylethyl)-1,2,4-triazine-5(4H)-one hydrochloride]	1650	
CCCCCCC(C(=O)OCC)c1nnc(N)n(N)c1=O (centres unmarked) [3,4-diamino-6-(1'-ethoxycarbonylheptyl)-1,2,4-triazine-5(4H)-one hydrochloride]	480	
CCC(C)c1nnc(N)n(N)c1=O (centres unmarked) [3,4-diamino-6-(1-methylpropyl)-1,2,4-triazine-5(4H)-one]	1400	
Nc1nnc(CCC(=O)O)c(=O)n1N [3,4-diamino-6-(2'-carboxyethyl)-1,2,4-triazine-5(4H)-one]	1970	
CCOC(=O)CCc1nnc(N)n(N)c1=O [3,4-diamino-6-(2'-ethoxycarbonylethyl)-1,2,4-triazine-5(4H)-one hydrochloride]	840	
Nc1nnc(Cc2ccccc2[N+](=O)[O-])c(=O)n1N [3,4-diamino-6-(2'-nitrobenzyl)-1,2,4-triazine-5(4H)-one hydrochloride]	900	
CC(C)Cc1nnc(N)n(N)c1=O [3,4-diamino-6-(2-methypropyl)-1,2,4-triazine-5(4H)-one]	1160	
COc1cccc(C(=O)Cc2nnc(N)n(N)c2=O)c1 [3,4-diamino-6-(3'-methoxyphenylcarbonylmethylene)-1,2,4-triazine-5(4H)-one hydrochloride]	> 10000	
COc1ccc(C=Cc2nnc(N)n(N)c2=O)cc1OC [3,4-diamino-6-(3,4-dimethoxystyryl)-1,2,4-triazine-5(4H)-one hydrochloride]	350	
Nc1nnc(Cc2ccc(O)cc2)c(=O)n1N [3,4-diamino-6-(4-hydroxybenzyl)-1,2,4-triazine-5(4H)-one hydrochloride]	4400	
Nc1nnc(Cc2ccccc2)c(=O)n1N [3,4-diamino-6-benzyl-1,2,4-triazine-5(4H)-one hydrochloride]	1200	
CCOC(=O)c1nnc(N)n(N)c1=O [3,4-diamino-6-carboxyethyl-1,2,4-triazine-5(4H)-one hydrochloride]	720	
Nc1nnc(C2CC2)c(=O)n1N [3,4-diamino-6-cyclopropyl-1,2,4-triazine-5(4H)-one]	2000	
CCc1nnc(N)n(N)c1=O [3,4-diamino-6-ethyl-1,2,4-triazine-5(4H)-one hydrochloride]	2000	
CC(C)c1nnc(N)n(N)c1=O [3,4-diamino-6-isopropyl-1,2,4-triazine-5(4H)-one hydrochloride]	1050	
Cc1nnc(N)n(N)c1=O [3,4-diamino-6-methyl-1,2,4-triazine-5(4H)-one]	1230	
Nc1nnc(CCc2ccccc2)c(=O)n1N [3,4-diamino-6-phenethyl-1,2,4-triazine-5(4H)-one hydrochloride]	2700	
CCCc1nnc(N)n(N)c1=O [3,4-diamino-6-propyl-1,2,4-triazine-5(4H)-one hydrochloride]	1300	
NNC(=O)CCc1nnc(N)n(N)c1=O [3-[6'-(3',4'-diamino-5'(4H)-one-1',2',4'-triazinyl)]-propionic hydrazide hydrochloride]	1500	
NNc1nncc(=O)n1N [4-amino-3-hydrazino-1,2,4-triazin-5(4H)-one hydrochloride]	> 10000	
NNc1nnc(Cc2ccc(O)cc2)c(=O)n1N [4-amino-3-hydrazino-6-(4'-hydroxybenzyl)-1,2,4-triazin-5(4H)-one hydrochloride]	> 1000	
Cc1nnc(NN)n(N)c1=O [4-amino-3-hydrazino-6-methyl-1,2,4-triazin-5(4H)-one hydrochloride]	< 3000	
NNC(=O)c1nnc(N)n(N)c1=O [6-(3',4'-diamino-5(4H)-one-1,2,4-triazinyl)hydrazide]	730	
[H]/N=C(\N/C(=N/[H])NCCCCCCNC(=N)NC(=N)Nc1ccc(Cl)cc1)Nc1ccc(Cl)cc1 [chlorhexidine]		significant browning

From EP0889884B1, “1,2,4-TRIAZINE DERIVATIVES FOR THE INHIBITION OF PROTEIN GLYCOSYLATION” (ALTEON Inc., priority 1996, dated 1997)
